Test results published in article PMC9848300, “Discovery of novel enasidenib analogues targeting inhibition of mutant isocitrate dehydrogenase 2 as antileukaemic agents” (Journal of Enzyme Inhibition and Medicinal Chemistry, 2023).

Experiments:
Assay type in all cases: cell-based
[1] = test system: SN 12C; experiment: NCI 60 antitumor screening (single dose / five doses); details: Homo sapiens, SN12C; for inhibition at 10 µM: SN 12C (renal cancer), single dose 10 μM, read-out: Growth inhibition percentage (GI %); for GI50: SN 12C, five doses (0.01–100 μM), read-out: GI50
[2] = test system: SK-MEL-5; experiment: as above; details: Homo sapiens; for inhibition at 10 µM: SK-MEL-5 (melanoma), single dose 10 μM, read-out: Growth inhibition percentage (GI %); for GI50: SK-MEL-5, five doses (0.01–100 μM), read-out: GI50
[3] = test system: MOLT-4; experiment: as above; details: Homo sapiens; for inhibition at 10 µM: MOLT-4 (leukaemia), single dose 10 μM, read-out: Growth inhibition percentage (GI %)
[4] = test system: DU-145; experiment: as above; details: Homo sapiens; for inhibition at 10 µM: DU-145 (prostate cancer), single dose 10 μM, read-out: Growth inhibition percentage (GI %); for GI50: DU-145, five doses (0.01–100 μM), read-out: GI50
[5] = test system: HL-60(TB); experiment: as above; details: Homo sapiens; for inhibition at 10 µM: HL-60(TB) (leukaemia), single dose 10 μM, read-out: Growth inhibition percentage (GI %); for GI50: HL-60(TB), five doses (0.01–100 μM), read-out: GI50
[6] = test system: PC-3; experiment: NCI 60 antitumor screening (single dose); details: Homo sapiens; PC-3 (prostate cancer), single dose 10 μM; read-out: Growth inhibition percentage (GI %)
How it was run: (§1)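 Read-out is percent growth (G%) of treated cancer cells relative to untreated, converted to percent inhibition as 100 − G%. Each compound was applied once at 10 μM across 60 human tumour lines under the NCI protocol.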

[7] = test system: M14; experiment: NCI 60 antitumor screening (single dose); details: Homo sapiens; M14 (melanoma), single dose 10 μM; read-out: Growth inhibition percentage (GI %)
How it was run: as §1

[8] = test system: OVCAR-3; experiment: NCI 60 antitumor screening (single dose); details: Homo sapiens; OVCAR-3 (ovarian cancer), single dose 10 μM; read-out: Growth inhibition percentage (GI %)
How it was run: as §1

[9] = test system: OVCAR-8; experiment: NCI 60 antitumor screening (single dose); details: Homo sapiens; OVCAR-8 (ovarian cancer), single dose 10 μM; read-out: Growth inhibition percentage (GI %)
How it was run: as §1

[10] = test system: NCI-H522; experiment: NCI 60 antitumor screening (single dose); details: Homo sapiens; NCI-H522 (non-small cell lung cancer), single dose 10 μM; read-out: Growth inhibition percentage (GI %)
How it was run: as §1

[11] = test system: HOP-62; experiment: NCI 60 antitumor screening (single dose); details: Homo sapiens; HOP-62 (non-small cell lung cancer), single dose 10 μM; read-out: Growth inhibition percentage (GI %)
How it was run: as §1

[12] = test system: A549/ATCC; experiment: NCI 60 antitumor screening (single dose); details: Homo sapiens; A549/ATCC (non-small cell lung cancer), single dose 10 μM; read-out: Growth inhibition percentage (GI %)
How it was run: as §1

[13] = test system: NCI-H322M; experiment: NCI 60 antitumor screening (single dose); details: Homo sapiens; NCI-H322M (non-small cell lung cancer), single dose 10 μM; read-out: Growth inhibition percentage (GI %)
How it was run: as §1

[14] = test system: CAKI-1; experiment: NCI 60 antitumor screening (single dose); details: Homo sapiens; CAKI-1 (renal cancer), single dose 10 μM; read-out: Growth inhibition percentage (GI %)
How it was run: as §1

[15] = test system: OVCAR-5; experiment: NCI 60 antitumor screening (single dose); details: Homo sapiens; OVCAR-5 (ovarian cancer), single dose 10 μM; read-out: Growth inhibition percentage (GI %)
How it was run: as §1

[16] = test system: SK-OV-3; experiment: NCI 60 antitumor screening (single dose); details: Homo sapiens; SK-OV-3 (ovarian cancer), single dose 10 μM; read-out: Growth inhibition percentage (GI %)
How it was run: as §1

[17] = test system: SF-268; experiment: NCI 60 antitumor screening (single dose); details: Homo sapiens; SF-268 (CNS cancer), single dose 10 μM; read-out: Growth inhibition percentage (GI %)
How it was run: as §1

[18] = test system: MCF7; experiment: NCI 60 antitumor screening (single dose); details: Homo sapiens; MCF7 (breast cancer), single dose 10 μM; read-out: Growth inhibition percentage (GI %)
How it was run: as §1

[19] = test system: NCI-H460; experiment: NCI 60 antitumor screening (single dose); details: Homo sapiens; NCI-H460 (non-small cell lung cancer), single dose 10 μM; read-out: Growth inhibition percentage (GI %)
How it was run: as §1

[20] = test system: HS 578T; experiment: NCI 60 antitumor screening (single dose); details: Homo sapiens; HS 578T (breast cancer), single dose 10 μM; read-out: Growth inhibition percentage (GI %)
How it was run: as §1

[21] = test system: NCI-H23; experiment: NCI 60 antitumor screening (single dose); details: Homo sapiens; NCI-H23 (non-small cell lung cancer), single dose 10 μM; read-out: Growth inhibition percentage (GI %)
How it was run: as §1

[22] = test system: NCI-H226; experiment: NCI 60 antitumor screening (single dose); details: Homo sapiens; NCI-H226 (non-small cell lung cancer), single dose 10 μM; read-out: Growth inhibition percentage (GI %)
How it was run: as §1

[23] = test system: OVCAR-4; experiment: NCI 60 antitumor screening (single dose); details: Homo sapiens; OVCAR-4 (ovarian cancer), single dose 10 μM; read-out: Growth inhibition percentage (GI %)
How it was run: as §1

[24] = test system: KM 12; experiment: NCI 60 antitumor screening (single dose); details: Homo sapiens, KM12; KM 12 (colon cancer), single dose 10 μM; read-out: Growth inhibition percentage (GI %)
How it was run: as §1

[25] = test system: U251; experiment: NCI 60 antitumor screening (single dose); details: Homo sapiens, U-251; U251 (CNS cancer), single dose 10 μM; read-out: Growth inhibition percentage (GI %)
How it was run: as §1

[26] = test system: SK-MEL-28; experiment: NCI 60 antitumor screening (single dose / five doses); details: Homo sapiens; for inhibition at 10 µM: SK-MEL-28 (melanoma), single dose 10 μM, read-out: Growth inhibition percentage (GI %); for GI50: SK-MEL-28, five doses (0.01–100 μM), read-out: GI50
[27] = test system: T-47D; experiment: as above; details: Homo sapiens, T47D; for inhibition at 10 µM: T-47D (breast cancer), single dose 10 μM, read-out: Growth inhibition percentage (GI %); for GI50: T-47D, five doses (0.01–100 μM), read-out: GI50

CN(C)c1ccc(/C=N/Nc2nc(N/N=C/c3ccc(N(C)C)cc3)nc(N3CCCCC3)n2)cc1 [compound 7g, 4-[(1e)-(2-{4-[(E)-2-{[4-(dimethylamino)phenyl]methylidene}chydrazin-1-yl]-6-(piperidin-1-yl)-1,3,5-triazin-2-yl}hydrazin-1-ylidene)methyl]-N,N-dimethylaniline]
inhibition at 10 µM [1]: 49.6% | GI50 [1]: 1870 nM | inhibition at 10 µM [2]: 13.3% | GI50 [2]: 1730 nM | inhibition at 10 µM [3]: 88% | GI50 ([3]; MOLT-4, five doses (0.01–100 μM), read-out: GI50): 2870 nM | inhibition at 10 µM [4]: 22.5% | GI50 [4]: 3920 nM | inhibition at 10 µM [5]: 138% | GI50 [5]: 2200 nM | inhibition at 10 µM [6]: 15.2% | inhibition at 10 µM [7]: 27.2% | inhibition at 10 µM [8]: 34.4% | inhibition at 10 µM [9]: 43.4% | inhibition at 10 µM [10]: 3.84% | inhibition at 10 µM [11]: 18.2% | inhibition at 10 µM [12]: 21.6% | inhibition at 10 µM [13]: -0.12% | inhibition at 10 µM [14]: 10.1% | inhibition at 10 µM [15]: 3.87% | inhibition at 10 µM [16]: -31.8% | inhibition at 10 µM [17]: -5.33% | inhibition at 10 µM [18]: 68.9% | inhibition at 10 µM [19]: 29.1% | inhibition at 10 µM [20]: -6.05% | inhibition at 10 µM [21]: 3.27% | inhibition at 10 µM [22]: -1.93% | inhibition at 10 µM [23]: -6.05% | inhibition at 10 µM [24]: 6.98% | inhibition at 10 µM [25]: 50% | inhibition at 10 µM [26]: 58.3% | GI50 [26]: 2000 nM | inhibition at 10 µM [27]: 54% | GI50 [27]: 2180 nM

Fc1cccc(Cl)c1/C=N/Nc1nc(N/N=C/c2c(F)cccc2Cl)nc(N2CCCCC2)n1 [compound 7l, 2,4-Bis[(E)-2-[(2-Chloro-6-fluorophenyl)methylidene]hydrazin-1-yl]-6-(piperidin-1-yl)-1,3,5-triazine]
inhibition at 10 µM [1]: 76.8% | GI50 [1]: 2850 nM | inhibition at 10 µM [2]: 41% | GI50 [2]: 1880 nM | inhibition at 10 µM [3]: 86.3% | inhibition at 10 µM [4]: 39% | GI50 [4]: 11700 nM | inhibition at 10 µM [5]: 98.7% | GI50 [5]: 2000 nM | inhibition at 10 µM [6]: 81.3% | inhibition at 10 µM [7]: 88.1% | inhibition at 10 µM [8]: 77.3% | inhibition at 10 µM [9]: 74.2% | inhibition at 10 µM [10]: 89.6% | inhibition at 10 µM [11]: 74.1% | inhibition at 10 µM [12]: 78.4% | inhibition at 10 µM [13]: 64.2% | inhibition at 10 µM [14]: 85.9% | inhibition at 10 µM [15]: 72.2% | inhibition at 10 µM [16]: 60.9% | inhibition at 10 µM [17]: 63.3% | inhibition at 10 µM [18]: 96.9% | inhibition at 10 µM [19]: 80.1% | inhibition at 10 µM [20]: 66.7% | inhibition at 10 µM [21]: 55.2% | inhibition at 10 µM [22]: 46.1% | inhibition at 10 µM [23]: 79% | inhibition at 10 µM [24]: 89.2% | inhibition at 10 µM [25]: 73.2% | inhibition at 10 µM [26]: 55.1% | GI50 [26]: 3410 nM | inhibition at 10 µM [27]: 89% | GI50 [27]: 1710 nM
